Assay results reported in patent US20100075960A1 (priority 2006, published 2010).
pIC50: −log10 of the molar value.

Legend:
Assay type in all cases: cell-based
MX-1 = test: Inhibition of cell proliferation, MX-1; conditions: Homo sapiens, MX1; Breast; 72 h; methylene blue or CellTiter-Glo
Method: (§1) II. Inhibition of Cell Proliferation by PLK1 Inhibitors.
(§2) Exponentially growing cell lines of different tumor origins, cultured in appropriate media containing 10% fetal bovine serum at 37° C. in a 5% CO2 incubator were plated in 96 or 384-well plates. Twenty four hours post-plating, cells were treated with different concentrations of test compounds ranging from 20 μM to 0.04 nM. Several wells were left untreated as a control. Seventy two hours post-treatment, cell numbers were determined using different techniques; 100 μl per well of methylene blue (Sigma M9140) (0.5% in 50:50 Ethanol:water), or 10-100 μl per well of CellTiter-Glo (Promega #G7573), depending on well size. For methylene blue staining, stain was incubated at room temperature for 30 minutes before plates were rinsed and dye solubilized in 1% N-lauroyl sarcosine, sodium salt, (Sigma L5125, in PBS). Plates were read on a microplate reader, measuring the OD at 620 nm. For CellTiter-Glo, plates were incubated at room temperature for 15 minutes and the chemiluminescent signal was read on the Victor V or Envison 2100 reader.
(§3) Percent inhibition of cell growth was expressed as percent proliferation relative to 100% proliferation (control). Concentration of test compound that inhibited 50% of cell growth (IC50) was determined by 4 parameter fit of data using XLfit, (value of no cell control was substracted from all samples for background). The data are shown in Table 1 and Table 2 below and represent a compilation of several different experiments each performed using the general parameters outlined above, although minor variations may have been employed in some instances, in Table 1 and Table 2, +=IC50>1 μM; ++=IC50 0.5-1 μM: +++=IC50<0.5 μM.

PANC-1 = test: Inhibition of cell proliferation, PANC-1; conditions: Homo sapiens, pancreatic, 72 h, methylene blue or CellTiter-Glo
Method: as §1, §2
(§4) Percent inhibition of cell growth was expressed as percent proliferation relative to 100% proliferation (control). […]

A431 = test: Inhibition of cell proliferation, A431; conditions: Homo sapiens, A-431; skin; 72 h; methylene blue or CellTiter-Glo
Method: as §1, §2, §4

COLO205 = test: Inhibition of cell proliferation, COLO205; conditions: Homo sapiens, COLO 205; Colon; 72 h; methylene blue or CellTiter-Glo
Method: as §1, §2, §3

NCI-H358 = test: Inhibition of cell proliferation, NCI-H358; conditions: Homo sapiens, lung, 72 h, methylene blue or CellTiter-Glo
Method: as §1, §2, §4

HCC1954 = test: Inhibition of cell proliferation, HCC1954; conditions: Homo sapiens, breast, 72 h, methylene blue or CellTiter-Glo
Method: as §1, §2, §4

NCI-H727 = test: Inhibition of cell proliferation, NCI-H727; conditions: Homo sapiens, lung, 72 h, methylene blue or CellTiter-Glo
Method: as §1, §2, §4

Capan-2 = test: Inhibition of cell proliferation, Capan-2; conditions: Homo sapiens, pancreas, 72 h, methylene blue or CellTiter-Glo
Method: as §1, §2, §4

BXPC3 = test: Inhibition of cell proliferation, BXPC3; conditions: Homo sapiens, BXPC-3; Pancreatic; 72 h; methylene blue or CellTiter-Glo
Method: as §1, §2, §4

T-47D = test: Inhibition of cell proliferation, T-47D; conditions: Homo sapiens, T47D; breast; 72 h; methylene blue or CellTiter-Glo
Method: as §1, §2, §4

A549-L = test: Inhibition of cell proliferation, A549-L; conditions: lung; 72 h; methylene blue or CellTiter-Glo
Method: as §1, §2, §3

HN5 = test: Inhibition of cell proliferation, HN5; conditions: 72 h
Method: as §1, §2, §3

SKMEL28 = test: Inhibition of cell proliferation, SKMEL28; conditions: Homo sapiens, SK-MEL-28; skin; 72 h; methylene blue or CellTiter-Glo
Method: as §1, §2, §4

SK-BR-3 = test: Inhibition of cell proliferation, SK-BR-3; conditions: Homo sapiens, breast, 72 h, methylene blue or CellTiter-Glo
Method: as §1, §2, §4

HT29 = test: Inhibition of cell proliferation, HT29; conditions: Homo sapiens, HT-29; Colon; 72 h; methylene blue or CellTiter-Glo
Method: as §1, §2, §3

Saos-2 = test: Inhibition of cell proliferation, Saos-2; conditions: Homo sapiens, bone, 72 h, methylene blue or CellTiter-Glo
Method: as §1, §2, §4

CA46 = test: Inhibition of cell proliferation, CA46; conditions: Homo sapiens, peripheral blood, 72 h, methylene blue or CellTiter-Glo
Method: as §1, §2, §4

MDA-MB-468 = test: Inhibition of cell proliferation, MDA-MB-468; conditions: Homo sapiens, Breast, 72 h, methylene blue or CellTiter-Glo
Method: as §1, §2, §4

SKMEL3 = test: Inhibition of cell proliferation, SKMEL3; conditions: Homo sapiens, SK-MEL3; skin; 72 h; methylene blue or CellTiter-Glo
Method: as §1, §2, §4

Panc 02.03 = test: Inhibition of cell proliferation, Panc 02.03; conditions: Homo sapiens, pancreas, 72 h, methylene blue or CellTiter-Glo
Method: as §1, §2, §4

BT549 = test: Inhibition of cell proliferation, BT549; conditions: Homo sapiens, BT-549; breast; 72 h; methylene blue or CellTiter-Glo
Method: as §1, §2, §4

NCI-N87 = test: Inhibition of cell proliferation, NCI-N87; conditions: Homo sapiens, stomach, 72 h, methylene blue or CellTiter-Glo
Method: as §1, §2, §4

BT474 = test: Inhibition of cell proliferation, BT474; conditions: Homo sapiens, BT-474; breast; 72 h; methylene blue or CellTiter-Glo
Method: as §1, §2, §4

T24 = test: Inhibition of cell proliferation, T24; conditions: Homo sapiens, T-24; urinary bladder; 72 h; methylene blue or CellTiter-Glo
Method: as §1, §2, §4

MCF7 = test: Inhibition of cell proliferation, MCF7; conditions: Homo sapiens, Breast, 72 h, methylene blue or CellTiter-Glo
Method: as §1, §2, §4

P388 = test: Inhibition of cell proliferation, P388; conditions: Mouse leukemia, 72 h, methylene blue or CellTiter-Glo
Method: as §1, §2, §3

A498 = test: Inhibition of cell proliferation, A498; conditions: Homo sapiens, kidney, 72 h, methylene blue or CellTiter-Glo
Method: as §1, §2, §4

A2780 = test: Inhibition of cell proliferation, A2780; conditions: Homo sapiens, ovary, 72 h, methylene blue or CellTiter-Glo
Method: as §1, §2, §4

U87-MG = test: Inhibition of cell proliferation, U87-MG; conditions: Homo sapiens, U-87 MG; brain; 72 h; methylene blue or CellTiter-Glo
Method: as §1, §2, §4

pIC50 (PANC-1): > 6.30
pIC50 (A431): > 6.30
pIC50 (COLO205): > 6.30
pIC50 (NCI-H358): > 6.30
pIC50 (HCC1954): > 6.30
pIC50 (NCI-H727): < 6.00
pIC50 (BXPC3): > 6.30
pIC50 (T-47D): < 6.00
pIC50 (A549-L): > 6.30
pIC50 (SKMEL28): < 6.00
pIC50 (SK-BR-3): > 6.30
pIC50 (HT29): > 6.30
pIC50 (MDA-MB-468): > 6.30
pIC50 (SKMEL3): > 6.30
pIC50 (Panc 02.03): > 6.30
pIC50 (BT549): > 6.30
pIC50 (BT474): < 6.00
pIC50 (T24): > 6.30
pIC50 (MCF7): > 6.30
pIC50 (P388): > 6.30
pIC50 (A2780): > 6.30
pIC50 (U87-MG): > 6.30
Structure (SMILES): C[C@@H](Oc1cc(-n2cnc3cc(-c4cnn(C)c4)ccc32)sc1C(N)=O)c1cccc(OC2CCN(C)CC2)c1Cl [Example 48]
pIC50 (MX-1): > 6.30
pIC50 (Capan-2): < 6.00
pIC50 (HN5; Homo sapiens, Head and neck, Table 2 first HN5 line): > 6.30
pIC50 (HN5; head/neck, Table 2 second HN5 line): > 6.30
pIC50 (Saos-2): > 6.30
pIC50 (CA46): > 6.30
pIC50 (NCI-N87): > 6.30
pIC50 (A498): > 6.30
